Tested on: influenza proteins (A/Panama/2007/99)
Assay type: in vivo, Balb/C mice
Conditions: intranasal, day 0 and 14, 5 μg influenza proteins, lipopeptide in reconstituted membranes

Substance	enhancement of the immune response
N-palmitoyl-S-2,3(bispalmitoyloxy)-propyl-cysteinyl-seryl-(lysil)3-lysine [lysine derivative]	approximately equivalent enhancement of the immune response
N-palmitoyl-S-2,3(bispalmitoyloxy)-propyl-cysteinyl-seryl-(prolyl)3-proline [proline derivative]	approximately equivalent enhancement of the immune response
